Assay results published in patent publication US12540137B2, “N-1 branched alkyl ether substituted imidazo[4,5-c]quinoline compounds, compositions, and methods” (Solventum Intellectual Properties Company, priority 2018, dated 2026).

Experiments:
[1] = molecular target: T1, human TLR8 (Homo sapiens, UniProt Q9NR97); experiment: TLR activation, HEK-BLUE-hTLR8 SEAP reporter cells; assay type: cell-based; conditions: 16-20 hours, SEAP response at least 2× vehicle control, tested 0.01-30 micromolar
T1 construct: host or cells: HEK293 (HEK-BLUE-hTLR8)
T1 sequence (Q9NR97 27-1041): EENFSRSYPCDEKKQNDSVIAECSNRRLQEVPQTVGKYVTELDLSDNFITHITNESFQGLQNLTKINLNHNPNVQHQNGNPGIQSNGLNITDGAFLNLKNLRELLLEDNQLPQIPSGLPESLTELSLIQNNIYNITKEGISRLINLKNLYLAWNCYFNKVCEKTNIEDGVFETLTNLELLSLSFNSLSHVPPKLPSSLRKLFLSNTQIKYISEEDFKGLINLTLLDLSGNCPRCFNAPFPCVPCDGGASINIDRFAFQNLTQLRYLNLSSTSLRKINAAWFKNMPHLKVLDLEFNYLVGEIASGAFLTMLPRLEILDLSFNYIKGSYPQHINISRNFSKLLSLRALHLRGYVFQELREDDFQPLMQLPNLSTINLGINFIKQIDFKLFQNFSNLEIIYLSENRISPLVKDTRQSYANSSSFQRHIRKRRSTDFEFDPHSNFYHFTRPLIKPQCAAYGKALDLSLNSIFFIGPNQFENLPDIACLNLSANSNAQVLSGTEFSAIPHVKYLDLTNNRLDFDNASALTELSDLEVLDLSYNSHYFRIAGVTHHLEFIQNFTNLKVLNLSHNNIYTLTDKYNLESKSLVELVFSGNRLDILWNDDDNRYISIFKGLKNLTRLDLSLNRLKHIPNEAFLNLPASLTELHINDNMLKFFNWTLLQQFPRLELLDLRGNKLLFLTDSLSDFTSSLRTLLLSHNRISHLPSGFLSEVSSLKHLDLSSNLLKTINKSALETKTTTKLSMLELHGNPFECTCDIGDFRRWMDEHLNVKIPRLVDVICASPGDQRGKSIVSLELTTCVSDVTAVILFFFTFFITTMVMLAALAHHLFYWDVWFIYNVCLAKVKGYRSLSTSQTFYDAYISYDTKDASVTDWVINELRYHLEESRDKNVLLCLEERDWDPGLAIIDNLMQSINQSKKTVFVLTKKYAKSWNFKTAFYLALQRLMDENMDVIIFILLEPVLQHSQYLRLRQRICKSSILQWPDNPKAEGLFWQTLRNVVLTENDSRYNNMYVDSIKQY
Method: (§1) HEK-BLUE-hTLR7 or hTLR8 reporter cells were obtained from InvivoGen, San Diego, CA. According to the manufacturer's description, these reporter cells were prepared by co-transfection of HEK293 cells with an inducible secreted embryonic alkaline phosphatase (SEAP) reporter gene and either the human TLR7 or TLR8 gene. The SEAP reporter gene was placed under the control of an IFN−β minimal promoter fused to five NF-κB and AP-1-binding sites. In the presence of a TLR ligand, activation of NF-κB and AP-1 occurs, resulting in a corresponding increase in SEAP levels.
(§2) In the assay, the HEK cells were grown and maintained using standard cell culture techniques in a growth medium that contained Dulbecco's Modified Eagle Medium (ThermoFisher Scientific Incorporated, Waltham, MA) supplemented with 1% penicillin/streptomycin and 10% heat-inactivated Gibco fetal bovine serum (ThermoFisher Scientific). Each compound was solubilized in DMSO to create a 3 mM stock solution. The stock solution was then further diluted with the growth medium to prepare serial dilutions. Each test compound was tested at a concentration of 30, 10, 3.3, 1.1, 0.37, 0.12, 0.04, and 0.01 micromolar using a 96-well format with 5×10^4 cells and 200 microliters of growth medium per well.
(§3) For each compound, hTLR7, hTLR8, and their respective null control HEK cells were screened. DMSO serially diluted into the growth medium served as the vehicle control. Cell culture supernatants containing the SEAP reporter were collected after an incubation period of 16-20 hours in a cell culture incubator (37° C. and 5% CO2), and either analyzed immediately or stored at −80° C. SEAP levels were measured using the colorimetric enzyme assay (QUANTI-BLUE (InvivoGen) according to manufacturer's instructions.
(§4) Specifically, the minimum effective concentration of each compound (micromolar) was determined as the lowest concentration of the compound that produced a SEAP expression response at least 2× greater than that observed with the vehicle control wells.

[2] = molecular target: T2, human TLR7 (Homo sapiens, UniProt Q9NYK1); experiment: TLR activation, HEK-BLUE-hTLR7 SEAP reporter cells; assay type: cell-based; conditions: 16-20 hours, SEAP response at least 2× vehicle control, tested 0.01-30 micromolar
T2 construct: host or cells: HEK293 (HEK-BLUE-hTLR7)
T2 sequence (Q9NYK1 27-1049): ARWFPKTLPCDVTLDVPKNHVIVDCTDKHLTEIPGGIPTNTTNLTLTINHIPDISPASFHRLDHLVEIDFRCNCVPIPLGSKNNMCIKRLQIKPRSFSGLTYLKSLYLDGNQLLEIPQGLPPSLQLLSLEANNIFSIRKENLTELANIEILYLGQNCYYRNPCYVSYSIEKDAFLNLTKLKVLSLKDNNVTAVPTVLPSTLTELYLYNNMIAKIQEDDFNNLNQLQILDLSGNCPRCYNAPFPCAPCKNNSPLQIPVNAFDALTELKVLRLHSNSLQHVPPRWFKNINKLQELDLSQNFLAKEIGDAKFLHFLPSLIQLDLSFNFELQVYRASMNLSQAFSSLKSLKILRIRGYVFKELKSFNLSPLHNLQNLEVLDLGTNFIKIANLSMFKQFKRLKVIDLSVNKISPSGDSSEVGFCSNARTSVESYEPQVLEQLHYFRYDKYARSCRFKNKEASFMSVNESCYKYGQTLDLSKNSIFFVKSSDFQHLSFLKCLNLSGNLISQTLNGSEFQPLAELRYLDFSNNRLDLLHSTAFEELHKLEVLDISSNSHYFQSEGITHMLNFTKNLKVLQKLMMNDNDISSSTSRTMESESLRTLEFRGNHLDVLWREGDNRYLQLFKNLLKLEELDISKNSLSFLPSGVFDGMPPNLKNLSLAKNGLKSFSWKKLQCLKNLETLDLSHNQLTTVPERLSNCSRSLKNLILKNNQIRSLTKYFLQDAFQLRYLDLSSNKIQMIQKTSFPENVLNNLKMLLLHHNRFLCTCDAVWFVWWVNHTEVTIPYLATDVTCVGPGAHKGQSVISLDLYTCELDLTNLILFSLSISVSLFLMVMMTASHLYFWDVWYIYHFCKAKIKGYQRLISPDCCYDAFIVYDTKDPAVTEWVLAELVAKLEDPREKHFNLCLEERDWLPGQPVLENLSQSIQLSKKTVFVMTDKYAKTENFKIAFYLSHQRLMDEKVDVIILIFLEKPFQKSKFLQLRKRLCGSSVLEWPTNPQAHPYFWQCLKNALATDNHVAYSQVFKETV
Method: as §1, §2, §3, §4

CCOC[C@@H](n1cnc2c(N)nc3ccccc3c21)C1(O)CCCC1 [Example 14, 1-[(1R)-1-(4-aminoimidazo[4,5-c]quinolin-1-yl)-2-ethoxy-ethyl]cyclopentanol]
MEC to Produce TLR Activation TLR 8 [1]: 30 µM | MEC to Produce TLR Activation TLR 7 [2]: 0.04 µM
